# Earlier results as cited in patent US6245354A, “Drug delivery system using galactoxyloglucan” (Dainippon Pharmaceutical Co., Ltd., priority 1996, dated 2001).
structure (smiles),measurement,setting,value
CO[C@@]12[C@H](COC(N)=O)C3=C(C(=O)C(C)=C(N)C3=O)N1C[C@@H]1N[C@@H]12 [mitomycin C],transfer to systemic circulation,administered into the abdominal cavity,rapidly transferred to a systemic circulation
same,therapeutic effects,"peritoneal tumors, carcinomatous peritonitis, into the abdominal cavity",can not exhibit sufficient therapeutic effects
